Positions count from the first letter of the chain named.
Columns and labels:
hVAChT M316A [1] = molecular target: T1, hVAChT M316A (Homo sapiens, UniProt Q16572, M316A); assay: ACh equilibrium binding by competition against [3H]vesamicol
T1 sequence (Q16572 1-532 M316A): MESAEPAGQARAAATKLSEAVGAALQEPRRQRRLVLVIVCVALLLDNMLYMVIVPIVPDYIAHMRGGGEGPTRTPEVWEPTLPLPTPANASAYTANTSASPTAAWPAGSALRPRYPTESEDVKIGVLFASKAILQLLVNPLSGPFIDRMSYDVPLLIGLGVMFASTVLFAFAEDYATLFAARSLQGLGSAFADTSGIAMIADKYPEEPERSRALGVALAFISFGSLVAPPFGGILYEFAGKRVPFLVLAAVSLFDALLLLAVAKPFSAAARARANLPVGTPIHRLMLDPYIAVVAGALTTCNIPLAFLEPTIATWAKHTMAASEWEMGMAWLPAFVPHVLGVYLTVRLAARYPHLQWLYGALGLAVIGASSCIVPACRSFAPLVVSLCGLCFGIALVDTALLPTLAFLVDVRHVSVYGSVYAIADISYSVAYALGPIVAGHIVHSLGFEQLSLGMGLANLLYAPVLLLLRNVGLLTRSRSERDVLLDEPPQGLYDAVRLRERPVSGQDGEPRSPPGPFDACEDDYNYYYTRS

hVAChT F392A = molecular target: T2, hVAChT F392A (Homo sapiens, UniProt Q16572, F392A); assay: [3H]ACh transport; type: biochemical
T2 sequence (Q16572 1-532 F392A): T1 sequence (Q16572 1-532 M316A) with A316M, F392A

hVAChT M316A [2] = molecular target: T1, hVAChT M316A; assay: [3H]ACh transport; type: biochemical
hVAChT W325F = molecular target: T3, hVAChT W325F (Homo sapiens, UniProt Q16572, W325F); assay: ACh equilibrium binding by competition against [3H]vesamicol
T3 sequence (Q16572 1-532 W325F): T1 sequence (Q16572 1-532 M316A) with A316M, W325F

hVAChT A321F = molecular target: T4, hVAChT A321F (Homo sapiens, UniProt Q16572, A321F); assay: as above
T4 sequence (Q16572 1-532 A321F): T1 sequence (Q16572 1-532 M316A) with A316M, A321F

hVAChT F231A = molecular target: T5, hVAChT F231A (Homo sapiens, UniProt Q16572, F231A); assay: [3H]vesamicol saturation binding; conditions: pH 7.4
T5 sequence (Q16572 1-532 F231A): T1 sequence (Q16572 1-532 M316A) with F231A, A316M

[3] = read-out: KM, Michaelis-Menten constant for ACh transport, pH 7.4

Row | Structure (SMILES) | Kd (hVAChT M316A [1]) [mM] | FHA, fraction of the ACh sites that have high affinity (hVAChT M316A [1]; M316A hVAChT, pH 7.4) | Vmax/Bmax, ACh transport normalized to Bmax (hVAChT F392A; pH 7.4) [min⁻¹] | Km (hVAChT F392A; [3]) [µM] | Vmax/Bmax, ACh transport normalized to Bmax (hVAChT M316A [2]; pH 7.4) [min⁻¹] | Km (hVAChT M316A [2]; [3]) [µM] | Kd (hVAChT W325F) [mM] | FHA, fraction of the ACh sites that have high affinity (hVAChT W325F; W325F hVAChT, pH 7.4) | Kd (hVAChT A321F) [mM] | FHA, fraction of the ACh sites that have high affinity (hVAChT A321F; A321F hVAChT, pH 7.4) | Bmax, maximal specific [3H]vesamicol binding (VAChT expression level) (hVAChT F231A) [pmol/mg]
1 | CC(=O)OCC[N+](C)(C)C [ACh, acetylcholine] | 8.3 ± 0.7 | 0.74 ± 0.03 | 11 ± 1 | 520 ± 110 | 8.2 ± 1.0 | 1500 ± 300 | 7.3 ± 1.6 | 0.74 ± 0.09 | 15 ± 2 | 0.90 ± 0.06 | 
2 | O[C@@H]1CCCC[C@H]1N1CCC(c2ccccc2)CC1 (racemic) [vesamicol, ( )-trans-2-(4-phenylpiperidino)cyclohexanol] |  |  |  |  |  |  |  |  |  |  | 64 ± 4
